Experiments:
ARPE-19-nic cells [1] = assay: De-esterification in cells (HPLC of cell extracts); type: in vitro ADME, human; conditions: confluent cells treated with 100 nM for 30 minutes and 2 hours
Description: For cell work, confluent ARPE-19-nic cells were treated with 100 nM dye solutions for 30 minutes and 2 hours at 37°C, 5% CO2 in a 12-well plate. After washing the cells with PBS three times, cells were extracted using cell scrappers with the aid of methanol. The cell suspension in methanol was sonicated in a water bath for 5 minutes and was centrifuged at 16,000 g for 15 minutes. The supernatant was transferred to an HPLC vial and methanol was evaporated under a stream of nitrogen. The sample was resuspended in 40 µL of methanol before injecting into the HPLC system. Twenty microliters of the samples were injected with an autosampler. Separation was conducted by 1.1 mL/min isocratic elution with a methanol (80%) and 10 mM sodium phosphate buffer (pH 5.8, 20%) mobile phase on a 250 × 4.6-mm (5 µm) C18 column (Pinnacle II; Restek, Bellefonte, PA) maintained at 40°C. The samples were monitored at an emission wavelength of 580 nm (λex = 550 nm) using a FLD detector and analyzed with Agilent Chemstation software.

[2] = system: isolated mitochondria from ARPE-19-nic cells; assay: Quantification of dye amounts in isolated mitochondria; type: cell-based, human; conditions: 100 nM, 30 minutes; t-test P < 0.0001
[3] = Stability of dyes in media (HPLC); type: in vitro ADME; conditions: 100 nM in MEM-Nic + 1% FBS, 37°C, HPLC at 0 and 2 hours
Description: Fresh 100 nM RBBE solutions were prepared in MEM-Nic + 1% FBS with 0.2% Tween20. HPLC chromatograms were recorded immediately after making solutions and after incubation at 37°C for 2 hours to determine stability of the ester linkage in media.

ARPE-19-nic cells [4] = assay: Co-localization with Mito-GFP (confocal and high-resolution live cell imaging); type: cell-based, human; conditions: 25 nM, 30 minutes; for cell penetration and association with mitochondria, high-resolution airy scan imaging: live cells
Description: ARPE-19-nic cells were seeded at 1.5 × 10^5 cells per well density in 8-well Millicell EZ slides with MEM-Nic + 1% FBS. After 24 hours (60%–70% confluency), cells were transfected with CellLight Mitochondria-GFP using manufacturer's recommended protocol. For co-localization experiments carried out at subconfluent conditions, media containing CellLight Mito-GFP were removed, washed with DPBS and cells were treated with 25 nM dye solutions prepared in MEM-Nic + 1% FBS at 37°C, 5% CO2. After 30 minutes, media containing dye solution was removed and cells were washed three times with DPBS. Cells were mounted with DPBS for confocal laser scanning microscope imaging. An 63× oil lens was used to image cells in green and red channels. For experiments carried out at confluent conditions, transfection was carried out at 60% to 70% confluency and cells were grown to 100% confluency. A 20× lens was used to generate images to compare staining efficiencies.
To analyze RBBE and its association with mitochondria, high-resolution live cell imaging was conducted using a Zeiss LSM880 inverted confocal microscope equipped with a GaAsP detector. All the images were obtained by using a 63× oil objective (30°C oil) in three channels (blue, green, and red) at room temperature. ARPE-19-nic cells were grown in Lab-Tek II chambered no 1.5 German coverslip system for 24 hours before treating with CellLight Mito-GFP overnight followed by a 30-minute treatment of 25 nM RBBE in growth media. After treating the cells with RBBE, cells were washed twice with PBS and nuclei were stained employing a Hoechst stain (1/2000 diluted from a 10 mg/mL stock solution in media) for 10 minutes at room temperature. Subsequently cells were washed twice with PBS and cells were imaged in phenol red free CO2 independent Leibovitz's (1×) media.

ARPE-19-nic cells [5] = assay: Cellular uptake: intracellular and extracellular fluorescence quantification; type: cell-based, human
ARPE-19-nic cells [6] = assay: Accumulation experiment with repeated dye additions; type: cell-based, human; conditions: 25 nM added 1×, 2× or 3×, 2 hours each
Description: Black clear bottomed Costar 96-well plates were pretreated with 0.039 mg/mL collagen I solution prepared in sterilized deionized water (50 µL per well) for 1 hour, aspirated and washed with 100 µL of DPBS. Confluent ARPE-19-nic cells were harvested and seeded at approximately 70,000 cells per well and grown until the cells reached 100% confluency. At the time of confluence (day 0), media were removed from the cells and treated with 100 µL of freshly made dye solutions in MEM-Nic + 1% FBS in amber Eppendorf tubes in dark. After the appropriate incubation time, cells were washed thrice with DPBS, lysed with Qiagen RLT buffer with 0.2% Tween20, and fluorescence was recorded at λex/ λem = 552 nm/558 nm. […] Extracellular levels were measured by transferring 75 µL of the media sitting on top of the cells to a new black, clear bottomed 96-well plate. To the transferred media, 25 µL of Qiagen RLT lysis buffer with 0.2% Tween20 were added and fluorescence was measured as mentioned elsewhere in this article. Intracellular amounts were determined by adding 100 µL of Qiagen RLT lysis buffer with 0.2% Tween20 to the cells that were washed thrice with DPBS. Fluorescence measurements were carried as described. […] After the incubation period, cells were washed three times with DPBS and fluorescence was measured from a plate reader. […]

| fluorescence from isolated mitochondria compared with RB-treated cells [2] | stability of the ester in media [3] | cell permeability (ARPE-19-nic cells [5]; 25 nM) | cell penetration after 24 hours incubation (ARPE-19-nic cells [5]; 24 hours incubation) | intracellular level after multiple doses (accumulation) (ARPE-19-nic cells [6]) | Compound | conversion into the parent form (de-esterification) inside cells (ARPE-19-nic cells [1]) | cell penetration and association with mitochondria, high-resolution airy scan imaging (ARPE-19-nic cells [4]) | co-localization with Mito-GFP labelled mitochondria (ARPE-19-nic cells [4]; confocal laser scanning microscopy) | intracellular versus extracellular location of dye (ARPE-19-nic cells [5]; 25 nM, 2 hours, fluorescence) |
| --- | --- | --- | --- | --- | --- | --- | --- | --- | --- |
| increased fluorescence activity | stable in media up to 2 hours |  |  |  | CCCCOC(=O)c1ccccc1-c1c2ccc(=[N+](CC)CC)cc-2oc2cc(N(CC)CC)ccc12 [RBBE, Rhodamine B Butyl Ester] | did not convert into its parent form within 2 hours | able to effectively penetrate into the cells and associated with mitochondria |  |  |
|  |  | cell impermeable | not able to penetrate into the cells | showed no accumulation | rhodamine B [RB] |  | did not observe any RB | not detected within the cells | primarily located in the extracellular space |

Reference: paper PMC7409196, “Investigating the Effect of Esterification on Retinal Pigment Epithelial Uptake Using Rhodamine B Derivatives” (Translational Vision Science & Technology, 2020)
